Source: patent publication US20110015119A1, “NOVEL SEMI-SYNTHETIC GLYCOPEPTIDES AS ANTIBACTERIAL AGENTS” (LEAD THERAPEUTICS, INC., priority 2009, published 2011)
Values after ≈ are worked out from the molar mass of the structure shown. Like-named read-outs stand apart in the source and are kept apart here.

Tests used:
Assay type in all cases: cell-based
[1] = tested on: Enterococcus faecalis 848 (VRE, Van A); assay: MIC by broth microdilution, EFc 848; conditions: class symbols
Procedure: (§1) Antibacterial activity in vitro is investigated by broth microdilution method in Meuller-Hinton broth as recommended by NCCLS. All strains tested are clinical isolates either sensitive or resistant to natural glycopeptides. MIC values were determined using the CLSI-recommended broth microdilution procedure (Clinical and Laboratory Standards Institute, Methods for Dilution Antimicrobial Susceptibility Tests for Bacteria That Grow Aerobically; Approved Standard-Seventh Edition.). Automated liquid handlers (Multidrop 384, Labsystems, Helsinki, Finland; Biomek 2000 and Multimek 96, Beckman Coulter, Fullerton Calif.) were used to conduct serial dilutions and liquid transfers. The MIC value for vancomycin is given for comparison. The abbreviations for organisms tested are as follow: SA 100—Staphylococcus aureus 100 (ATCC 29213); SA 757—Staphylococcus aureus 757 (MRSA); SA 2012—Staphylococcus aureus 2012 (VISA); SE 835—Staphylococcus epidermidis 835; SE 831—Staphylococcus epidermidis 831 (MRSE); EFc 101—Enterococcus faecalis 101 (ATCC 29212); EFc 848—Enterococcus faecalis 848 (VRE, Van A); EFcm 800—Enterococcus faecium 800; EFcm 752—Enterococcus faecium 752 (VRE, Van A); SPNE 1195—Streptococcus pneumoniae 1195 (ATCC 49619); SPY 712—Streptococcus pyogenes 712.

[2] = tested on: Staphylococcus aureus 2012 (VISA); assay: MIC by broth microdilution, SA 2012; conditions: class symbols
Procedure: as §1

[3] = tested on: Enterococcus faecium 752 (VRE, Van A); assay: MIC by broth microdilution, EFcm 752; conditions: class symbols
Procedure: as §1

Enterococcus faecium 800 = assay: MIC by broth microdilution, EFcm 800
Procedure: as §1

[4] = tested on: Staphylococcus aureus 757 (MRSA); assay: MIC by broth microdilution, SA 757; conditions: read-out: MIC SA 757
Procedure: as §1

[5] = tested on: Staphylococcus epidermidis 831 (MRSE); assay: MIC by broth microdilution, SE 831; conditions: read-out: MIC SE 831
Procedure: as §1

[6] = tested on: Streptococcus pyogenes 712; assay: MIC by broth microdilution, SPY 712
Procedure: as §1

[7] = tested on: Staphylococcus aureus 100 (ATCC 29213); assay: MIC by broth microdilution, SA 100
Procedure: as §1

[8] = tested on: Enterococcus faecalis 101 (ATCC 29212); assay: MIC by broth microdilution, EFc 101; conditions: class symbols
Procedure: as §1

[9] = tested on: Staphylococcus epidermidis 835; assay: MIC by broth microdilution, SE 835
Procedure: as §1

[10] = tested on: Streptococcus pneumoniae 1195 (ATCC 49619); assay: MIC by broth microdilution, SPNE 1195
Procedure: as §1

[11] = Enterococcus faecalis, VRE, read-out: MIC E FC 848, Enterococcus faecalis 848 (VRE, Van A)
[12] = Staphylococcus aureus, VISA, read-out: MIC SA 2012, Staphylococcus aureus 2012 (VISA)
[13] = Enterococcus faecium, VRE, read-out: MIC E FCM 752, Enterococcus faecium 752 (VRE, Van A)
[14] = Enterococcus faecium, 800, read-out: MIC E FCM 800
[15] = Staphylococcus epidermidis, MRSE
[16] = Streptococcus pyogenes, 712, read-out: MIC S PYO 712
[17] = Staphylococcus aureus, ATCC29213, read-out: MIC SA 100
[18] = Enterococcus faecalis, ATCC29212, read-out: MIC E FC 101, Enterococcus faecalis 101 (ATCC 29212)
[19] = Staphylococcus epidermidis, 835, read-out: MIC SE 835
[20] = Streptococcus pneumoniae, ATCC49619, read-out: MIC S PNE 1195

CCCCCCc1ccc(S(=O)(=O)NCCCCCCNCc2c(O)cc3c(c2O)-c2cc(ccc2O)[C@H]2NC(=O)[C@@H]4NC(=O)[C@H](CC(N)=O)NC(=O)[C@H](NC(=O)[C@@H](CC(C)C)NC)[C@H](O)c5ccc(c(Cl)c5)Oc5cc4cc(c5O[C@@H]4O[C@H](CO)[C@@H](O)[C@H](O)[C@H]4O[C@H]4C[C@](C)(NC(=O)CN)[C@H](O)[C@H](C)O4)Oc4ccc(cc4Cl)[C@@H](O)[C@H](NC2=O)C(=O)N[C@@H]3C(=O)O)cc1 (atropisomer, axis not shown) [Compound 362]
MIC ([1]; Enterococcus faecalis 848 (VRE, Van A), read-out: MIC E FC 848): 8 to 16 µg/mL (≈ 4.3 to 8.61 µM) | MIC ([2]; Staphylococcus aureus 2012 (VISA), read-out: MIC SA 2012): 0.01 to 0.5 µg/mL (≈ 0.00538 to 0.269 µM) | MIC ([3]; Enterococcus faecium 752 (VRE, Van A), read-out: MIC E FCM 752): 2 to 4 µg/mL (≈ 1.08 to 2.15 µM) | MIC (Enterococcus faecium 800; Enterococcus faecium 800, class symbols, read-out: MIC E FCM 800): 0.01 to 0.5 µg/mL (≈ 0.00538 to 0.269 µM) | MIC ([4]; Staphylococcus aureus 757 (MRSA), class symbols): 0.01 to 0.5 µg/mL (≈ 0.00538 to 0.269 µM) | MIC ([5]; Staphylococcus epidermidis 831 (MRSE), class symbols): 0.01 to 0.5 µg/mL (≈ 0.00538 to 0.269 µM) | MIC ([6]; Streptococcus pyogenes 712, class symbols, read-out: MIC S PYO 712): 0.01 to 0.5 µg/mL (≈ 0.00538 to 0.269 µM) | MIC ([7]; ATCC29213, Staphylococcus aureus 100 (ATCC 29213), class symbols, read-out: MIC SA 100): 0.01 to 0.5 µg/mL (≈ 0.00538 to 0.269 µM) | MIC ([8]; ATCC29212, Enterococcus faecalis 101 (ATCC 29212), read-out: MIC E FC 101): 0.01 to 0.5 µg/mL (≈ 0.00538 to 0.269 µM) | MIC ([9]; Staphylococcus epidermidis 835, class symbols, read-out: MIC SE 835): 0.01 to 0.5 µg/mL (≈ 0.00538 to 0.269 µM) | MIC ([10]; ATCC49619, Streptococcus pneumoniae 1195 (ATCC 49619), class symbols, read-out: MIC S PNE 1195): 0.01 to 0.5 µg/mL (≈ 0.00538 to 0.269 µM)

CNCCOc1ccc(CCNC(=O)Oc2cc(O)c3c(c2)[C@@H](C(=O)NC2C4CC5CC(C4)CC2C5)NC(=O)[C@H]2NC(=O)[C@H](NC(=O)[C@@H]4NC(=O)[C@H](CC(N)=O)NC(=O)[C@H](NC(=O)[C@@H](CC(C)C)NC)[C@H](O)c5ccc(c(Cl)c5)Oc5cc4cc(c5O[C@@H]4O[C@H](CO)[C@@H](O)[C@H](O)[C@H]4O[C@H]4C[C@](C)(N)[C@H](O)[C@H](C)O4)Oc4ccc(cc4Cl)[C@H]2O)c2ccc(O)c-3c2)cc1 (some centres unmarked) [Compound 335]
MIC [1, 11]: > 16 µg/mL | MIC [2, 12]: 1 to 2 µg/mL (≈ 0.555 to 1.11 µM) | MIC [3, 13]: 2 to 4 µg/mL (≈ 1.11 to 2.22 µM) | MIC (Enterococcus faecium 800; [14]): 0.01 to 0.5 µg/mL (≈ 0.00555 to 0.277 µM) | MIC ([4]; Staphylococcus aureus, MRSA): 0.01 to 0.5 µg/mL (≈ 0.00555 to 0.277 µM) | MIC [5, 15]: 0.01 to 0.5 µg/mL (≈ 0.00555 to 0.277 µM) | MIC [6, 16]: 0.01 to 0.5 µg/mL (≈ 0.00555 to 0.277 µM) | MIC [7, 17]: 0.01 to 0.5 µg/mL (≈ 0.00555 to 0.277 µM) | MIC [8, 18]: 0.01 to 0.5 µg/mL (≈ 0.00555 to 0.277 µM) | MIC [9, 19]: 0.01 to 0.5 µg/mL (≈ 0.00555 to 0.277 µM) | MIC [10, 20]: 0.01 to 0.5 µg/mL (≈ 0.00555 to 0.277 µM)

CCCCCCOc1ccc(S(=O)(=O)NCCCCCCNC(=O)Oc2cc(O)c3c(c2)[C@@H](C(=O)O)NC(=O)[C@H]2NC(=O)[C@H](NC(=O)[C@@H]4NC(=O)[C@H](CC(N)=O)NC(=O)[C@H](NC(=O)[C@@H](CC(C)C)NC)[C@H](O)c5ccc(c(Cl)c5)Oc5cc4cc(c5O[C@@H]4O[C@H](CO)[C@@H](O)[C@H](O)[C@H]4O[C@H]4C[C@](C)(N)[C@H](O)[C@H](C)O4)Oc4ccc(cc4Cl)[C@H]2O)c2ccc(O)c-3c2)cc1 (atropisomer, axis not shown) [Compound 349]
MIC [1, 11]: 4 to 8 µg/mL (≈ 2.18 to 4.37 µM) | MIC [2, 12]: 0.5 to 1 µg/mL (≈ 0.273 to 0.546 µM) | MIC [3, 13]: 0.5 to 1 µg/mL (≈ 0.273 to 0.546 µM) | MIC (Enterococcus faecium 800; [14]): 0.01 to 0.5 µg/mL (≈ 0.00546 to 0.273 µM) | MIC ([4]; Staphylococcus aureus, MRSA): 0.01 to 0.5 µg/mL (≈ 0.00546 to 0.273 µM) | MIC [5, 15]: 0.01 to 0.5 µg/mL (≈ 0.00546 to 0.273 µM) | MIC [6, 16]: 0.01 to 0.5 µg/mL (≈ 0.00546 to 0.273 µM) | MIC [7, 17]: 0.01 to 0.5 µg/mL (≈ 0.00546 to 0.273 µM) | MIC [8, 18]: 0.01 to 0.5 µg/mL (≈ 0.00546 to 0.273 µM) | MIC [9, 19]: 0.01 to 0.5 µg/mL (≈ 0.00546 to 0.273 µM) | MIC [10, 20]: 0.01 to 0.5 µg/mL (≈ 0.00546 to 0.273 µM)

CCCCCCc1ccc(S(=O)(=O)NCCCCCNC(=O)Oc2cc(O)c3c(c2)[C@@H](C(=O)O)NC(=O)[C@H]2NC(=O)[C@H](NC(=O)[C@@H]4NC(=O)[C@H](CC(N)=O)NC(=O)[C@H](NC(=O)[C@@H](CC(C)C)NC)[C@H](O)c5ccc(c(Cl)c5)Oc5cc4cc(c5O[C@@H]4O[C@H](CO)[C@@H](O)[C@H](O)[C@H]4O[C@H]4C[C@](C)(N)[C@H](O)[C@H](C)O4)Oc4ccc(cc4Cl)[C@H]2O)c2ccc(O)c-3c2)cc1 (atropisomer, axis not shown) [Compound 350]
MIC [1, 11]: 4 to 8 µg/mL (≈ 2.22 to 4.44 µM) | MIC [2, 12]: 0.01 to 0.5 µg/mL (≈ 0.00555 to 0.278 µM) | MIC [3, 13]: 1 to 2 µg/mL (≈ 0.555 to 1.11 µM) | MIC (Enterococcus faecium 800; [14]): 0.01 to 0.5 µg/mL (≈ 0.00555 to 0.278 µM) | MIC ([4]; Staphylococcus aureus, MRSA): 0.01 to 0.5 µg/mL (≈ 0.00555 to 0.278 µM) | MIC [5, 15]: 0.01 to 0.5 µg/mL (≈ 0.00555 to 0.278 µM) | MIC [6, 16]: 0.01 to 0.5 µg/mL (≈ 0.00555 to 0.278 µM) | MIC [7, 17]: 0.01 to 0.5 µg/mL (≈ 0.00555 to 0.278 µM) | MIC [8, 18]: 0.01 to 0.5 µg/mL (≈ 0.00555 to 0.278 µM) | MIC [9, 19]: 0.01 to 0.5 µg/mL (≈ 0.00555 to 0.278 µM) | MIC [10, 20]: 0.01 to 0.5 µg/mL (≈ 0.00555 to 0.278 µM)
